Measurements as given in patent US5773414A, “Endothelin antagonists” (Warner-Lambert Company, priority 1997, dated 1998).
Numbered stars: 1 amine (or outer) side, 2 acyl side, 3 side chain; on linkers, the order of the positions; unused ones are H or OH. Square brackets hold non-standard residues; d marks the D form. Peptide text beside a SMILES is read from it. * marks the point of attachment. X3 = Cc1c(C)c(C)c(C[C@@H](N[*:1])C(=O)[*:2])c(C)c1C; dDip = N[C@@H](C(=O)O)C(c1ccccc1)c1ccccc1; Cyclohexylacetyl = O=C(CC1CCCCC1)*; X1 = CC(C(=O)*)(c1ccccc1)c1ccccc1; Orn = NCCC[C@H](N)C(=O)O; NHcHex = C1CCC(N*)CC1; CO = O=C([*:1])[*:2]; Propionyl = CCC(=O)*

How the values were obtained:
ETA = target: T1, ETA (Oryctolagus cuniculus, UniProt A5A8K3); test: Endothelin Receptor Binding Assay-A (ETA), intact cell binding of [125I]-ET-1; design: species or system rabbit; conditions: Table IIa; for IC50: rabbit renal artery vascular smooth muscle cells, read-out: Binding Assay IC50 at Receptor Subtypes ETA
T1 construct: The cells used were rabbit renal artery vascular smooth muscle cells; endogenous in cells; host or cells: rabbit renal artery vascular smooth muscle cells
T1 sequence (A5A8K3 21-427): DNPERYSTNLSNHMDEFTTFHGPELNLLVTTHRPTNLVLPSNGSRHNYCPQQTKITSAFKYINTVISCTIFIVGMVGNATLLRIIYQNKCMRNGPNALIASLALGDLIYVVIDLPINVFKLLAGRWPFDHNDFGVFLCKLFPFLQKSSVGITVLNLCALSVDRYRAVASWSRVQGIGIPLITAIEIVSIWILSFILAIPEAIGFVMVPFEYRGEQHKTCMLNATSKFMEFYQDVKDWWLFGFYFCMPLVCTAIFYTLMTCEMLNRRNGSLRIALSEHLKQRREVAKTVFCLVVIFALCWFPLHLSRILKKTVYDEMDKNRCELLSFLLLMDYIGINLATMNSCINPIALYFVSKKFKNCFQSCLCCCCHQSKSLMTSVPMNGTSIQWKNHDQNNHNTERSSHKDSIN
Procedure: The cells used were rabbit renal artery vascular smooth muscle cells grown in a 48-well dish (1 cm^2) (confluent cells).
The growth media was Dulbeccos Modified Eagles/Ham's F12 which contained 10 fetal bovine serum and antibiotics (penicillin/streptomycin/fungizone).
Second, remove the assay buffers, place the dish on ice, and add 150 μL of cold assay buffer described above to each well. […] Next, place dish in a 37° C. water bath for about 2 hours and gently agitate the dish every 15 minutes. Discard the radioactive incubation mixture in the sink and wash wells 3 times with 1 mL of cold phosphate buffered saline. Last, add […] of 0.25M sodium hydroxide, agitate for 1 hour on rotator, and then transfer the sodium hydroxide extract to gamma counting tubes and count the radioactivity.

ETB = target: T2, ETB (Rattus norvegicus, UniProt P21451); test: Endothelin Receptor Binding Assay-B (ETB), [125I]-ET-1 binding in rat cerebellar membranes; conditions: Table IIa; for IC50: rat cerebellar membranes, read-out: Binding Assay IC50 at Receptor Subtypes ETB
T2 construct: thaw one aliquot of frozen rat cerebellar membranes; from tissue; host or cells: rat cerebellar membranes
T2 sequence (P21451 27-442): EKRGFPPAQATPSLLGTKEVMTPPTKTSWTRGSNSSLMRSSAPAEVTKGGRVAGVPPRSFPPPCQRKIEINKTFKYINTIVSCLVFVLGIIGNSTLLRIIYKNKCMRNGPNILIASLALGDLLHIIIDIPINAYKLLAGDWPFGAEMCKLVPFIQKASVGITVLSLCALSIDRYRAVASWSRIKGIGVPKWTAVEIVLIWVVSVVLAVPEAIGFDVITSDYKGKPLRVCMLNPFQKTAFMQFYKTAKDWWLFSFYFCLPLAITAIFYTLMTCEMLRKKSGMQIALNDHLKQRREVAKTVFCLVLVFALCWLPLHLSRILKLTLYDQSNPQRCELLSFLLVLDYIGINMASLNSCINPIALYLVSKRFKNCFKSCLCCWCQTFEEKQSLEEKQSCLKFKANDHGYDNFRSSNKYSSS
Procedure: The tissue is made up of 20 mM tris(hydroxymethyl)aminomethane hydrochloride (Trizma) buffer, 2 mM ethylenediaminetetraacetate, 100 μM phenylmethylsulfonyl fluoride.
First, thaw one aliquot of frozen rat cerebellar membranes (2 mg protein in 0.5 mL). Next, add 0.5 mL membrane aliquot to 4.5 mL cold tissue buffer, polytron at 7,500 revolutions per minute for 10 seconds. Finally, dilute tissue suspension 1/100 (0.1 mL suspension+9.9 mL tissue buffer), polytron again, and place ice.
Mix in 150 μL of tissue to each tube, vortex briefly, then tap to force all liquids to bottom (total assay volume=250 μL). Then place the tubes in a 37° C. water bath for 2 hours.
Add 2.5 mL cold water buffer (50 mM Trizma buffer) to each tube, filter, and then wash tube with additional 2.5 mL wash buffer and add to filter. Finally, wash filters with an additional 2.5 mL of cold wash buffer.
Count filters for radioactivity in gamma counter.

SMILES	inhibition at 10 µM (ETA; @ 10 μM, read-out: Binding Assay % Inhibition at Receptor Subtypes ETA) [%]	inhibition at 10 µM (ETB; @ 10 μM, read-out: Binding Assay % Inhibition at Receptor Subtypes ETB) [%]	IC50 (ETB) [nM]	IC50 (ETA) [nM]
CC[C@H](C)[C@H](NC(=O)[C@H](Cc1ccccc1)NC(=O)[C@H](CC(=O)O)NC(=O)[C@@H](Cc1ccccc1)NC(C)=O)C(=O)N[C@@H](Cc1c[nH]c2ccccc12)C(=O)O [Example 93, Ac--D--Phe--Asp--Phe--Ile--Trp] (Ac-[dF]DFIW-OH)	37.4	64.7	–	–
CC[C@H](C)[C@H](NC(=O)[C@H](Cc1ccccc1)NC(=O)[C@H](CC(C)C)NC(=O)[C@@H](Cc1ccccc1)NC(C)=O)C(=O)N[C@H](C(=O)N[C@@H](Cc1c[nH]c2ccccc12)C(=O)O)[C@@H](C)CC [Example 67, Ac--D--Phe--Leu--Phe--Ile--Ile--Trp] (Ac-[dF]LFIIW-OH)	–	–	35	–
CC[C@H](C)[C@H](NC(=O)[C@H](CC(=O)O)NC(=O)[C@H](CC(C)C)NC(=O)[C@H](N)Cc1c(C)c(C)c(C)c(C)c1C)C(=O)N[C@H](C(=O)N[C@@H](Cc1c[nH]c2ccccc12)C(=O)O)[C@@H](C)CC [Example 52, D--Pmp--Leu--Asp--Ile--Ile--Trp] (H-[X3]LDIIW-OH)	–	–	3870	6000
CC[C@H](C)[C@H](NC(=O)[C@H](Cc1ccc(O)cc1)NC(=O)[C@H](N)C(c1ccccc1)c1ccccc1)C(=O)N[C@H](C(=O)N[C@@H](Cc1c[nH]c2ccccc12)C(=O)O)[C@@H](C)CC [Example 95, D--Dip--Tyr--Ile--Ile--Trp] (H-[dDip]YIIW-OH)	–	–	350	8000
CC[C@H](C)[C@H](NC(=O)[C@H](CC(=O)O)NC(=O)[C@H](CC(C)C)NC(=O)C(C)(c1ccccc1)c1ccccc1)C(=O)N[C@H](C(=O)N[C@@H](Cc1c[nH]c2ccccc12)C(=O)O)[C@@H](C)CC [Example 28, Bppa--Leu--Asp--Ile--Ile--Trp] (X1-LDIIW-OH)	–	–	1700	8000
CC[C@H](C)[C@H](NC(=O)[C@H](Cc1ccccc1)NC(=O)[C@H](CC(C)C)NC(=O)[C@H](NC(C)=O)C(c1ccccc1)c1ccccc1)C(=O)N[C@H](C(=O)N[C@@H](Cc1c[nH]c2ccccc12)C(=O)O)[C@@H](C)CC [Example 16, Ac--D--Dip--Leu--Phe--Ile--Ile--Trp] (Ac-[dDip]LFIIW-OH)	–	–	8	1000
CC[C@H](C)[C@H](NC(=O)[C@H](CC(=O)O)NC(=O)[C@H](CC(C)C)NC(=O)[C@H](NC(=O)CC1CCCCC1)C(c1ccccc1)c1ccccc1)C(=O)N[C@H](C(=O)N[C@@H](Cc1c[nH]c2ccccc12)C(=O)O)[C@@H](C)CC [Example 34, Cxl--D--Dip--Leu--Asp--Ile--Ile--Trp] (Cyclohexylacetyl-[dDip]LDIIW-OH)	–	–	200	3400
CC[C@H](C)[C@H](NC(=O)[C@H](CC(=O)O)NC(=O)[C@H](NC(C)=O)C(c1ccccc1)c1ccccc1)C(=O)N[C@H](C(=O)N[C@@H](Cc1c[nH]c2ccccc12)C(=O)O)[C@@H](C)CC [Example 94, Ac--D--Dip--Asp--Ile--Ile--Trp] (Ac-[dDip]DIIW-OH; C-terminus assumed)	–	–	250	> 1000
CC[C@H](C)[C@H](NC(=O)[C@H](CC(=O)O)NC(=O)[C@H](CC(C)C)NC(=O)[C@@H](Cc1ccccc1)NC(C)=O)C(=O)N[C@H](C(=O)N[C@@H](Cc1ccc(O)cc1)C(=O)O)[C@@H](C)CC [Example 89, Ac--D--Phe--Leu--Asp--Ile--Ile--Tyr] (Ac-[dF]LDIIY-OH)	–	–	220	> 10000
CC[C@H](C)[C@H](NC(=O)[C@H](CC(=O)O)NC(=O)[C@H](CC(C)C)NC(=O)[C@H](NC(C)=O)C(c1ccccc1)c1ccccc1)C(=O)N[C@H](C(=O)N[C@@H](Cc1c[nH]c2ccccc12)C(=O)O)C(C)C [Example 86, Ac--D--Dip--Leu--Asp--Ile--Val--Trp] (Ac-[dDip]LDIVW-OH)	–	–	630	97
CC[C@H](C)[C@H](NC(=O)[C@H](CC(=O)O)NC(=O)[C@H](CC(C)C)NC(=O)[C@H](NC(C)=O)C(c1ccccc1)c1ccccc1)C(=O)N[C@H](C(=O)N[C@@H](Cc1ccc(O)cc1)C(=O)O)[C@@H](C)CC [Example 88, Ac--D--Dip--Leu--Asp--Ile--Ile--Tyr] (Ac-[dDip]LDIIY-OH)	–	–	6300	3700
CC[C@H](C)[C@H](NC(=O)[C@H](CCCCN)NC(=O)[C@H](CC(C)C)NC(=O)[C@H](NC(C)=O)C(c1ccccc1)c1ccccc1)C(=O)N[C@H](C(=O)N[C@@H](Cc1c[nH]c2ccccc12)C(=O)O)[C@@H](C)CC [Example 69, Ac--D--Dip--Leu--Lys--Ile--Ile--Trp] (Ac-[dDip]LKIIW-OH)	–	–	33	480
CC[C@H](C)[C@H](NC(=O)[C@H](CC(=O)O)NC(=O)[C@H](CC(C)C)NC(=O)[C@H](NC(=O)NC1CCCCC1)C(c1ccccc1)c1ccccc1)C(=O)N[C@H](C(=O)N[C@@H](Cc1c[nH]c2ccccc12)C(=O)O)[C@@H](C)CC [Example 36, Cxl(U)--D--Dip--Leu--Asp--Ile--Ile--Trp] ({NHcHex-CO}-[dDip]LDIIW-OH)	–	–	50	820
CCC(=O)N[C@@H](C(=O)N[C@@H](CC(C)C)C(=O)N[C@@H](CC(=O)O)C(=O)N[C@H](C(=O)N[C@H](C(=O)N[C@@H](Cc1c[nH]c2ccccc12)C(=O)O)[C@@H](C)CC)[C@@H](C)CC)C(c1ccccc1)c1ccccc1 [Example 31, Et--D--Dip--Leu--Asp--Ile--Ile--Trp] (Propionyl-[dDip]LDIIW-OH)	–	–	2000	1800
CC[C@H](C)[C@H](NC(=O)[C@H](CC(=O)O)NC(=O)[C@H](CC(C)C)NC(=O)[C@@H](Cc1ccccc1)NC(C)=O)C(=O)N[C@H](C(=O)N[C@@H](Cc1c[nH]c2ccccc12)C(=O)O)[C@@H](C)CC [Example 1, Ac--D--Phe--Leu--Asp--Ile--Ile--Trp] (Ac-[dF]LDIIW-OH)	–	–	3300	–
CC[C@H](C)[C@H](NC(=O)[C@H](CC(=O)O)NC(=O)[C@H](Cc1ccccc1)NC(=O)[C@@H](Cc1ccccc1)NC(C)=O)C(=O)N[C@H](C(=O)N[C@@H](Cc1c[nH]c2ccccc12)C(=O)O)[C@@H](C)CC [Example 60, Ac--D--Phe--Phe--Asp--Ile--Ile--Trp] (Ac-[dF]FDIIW-OH)	–	–	300	–
CC[C@H](C)[C@H](NC(=O)[C@H](CC(=O)O)NC(=O)[C@H](CCCN)NC(=O)[C@@H](Cc1ccccc1)NC(C)=O)C(=O)N[C@H](C(=O)N[C@@H](Cc1c[nH]c2ccccc12)C(=O)O)[C@@H](C)CC [Example 8, Ac--D--Phe--Orn--Asp--Ile--Ile--Trp] (Ac-[dF][Orn]DIIW-OH)	–	–	4000	–
CC[C@H](C)[C@H](NC(=O)[C@H](CC(=O)O)NC(=O)[C@H](CC(C)C)NC(=O)[C@H](N)C(c1ccccc1)c1ccccc1)C(=O)N[C@H](C(=O)N[C@@H](Cc1c[nH]c2ccccc12)C(=O)O)[C@@H](C)CC [Example 49, D--Dip--Leu--Asp--Ile--Ile--Trp] (H-[dDip]LDIIW-OH)	–	–	–	2100
CC[C@H](C)[C@H](NC(=O)[C@H](CC(=O)O)NC(=O)[C@@H](Cc1ccccc1)NC(=O)[C@@H](Cc1ccccc1)NC(C)=O)C(=O)N[C@H](C(=O)N[C@@H](Cc1c[nH]c2ccccc12)C(=O)O)[C@@H](C)CC [Example 61, Ac--D--Phe--D--Phe--Asp--Ile--Ile--Trp] (Ac-[dF][dF]DIIW-OH)	–	–	10	–
CC[C@H](C)[C@H](NC(=O)[C@H](CC(=O)O)NC(=O)[C@H](CC(C)C)NC(=O)[C@@H](Cc1ccc(O)cc1)NC(C)=O)C(=O)N[C@H](C(=O)N[C@@H](Cc1c[nH]c2ccccc12)C(=O)O)[C@@H](C)CC [Example 10, Ac--D--Tyr--Leu--Asp--Ile--Ile--Trp] (Ac-[dY]LDIIW-OH)	–	–	–	400
